Data on two compounds can be found in patent US11225642B2, “Method for producing renal progenitor cells” (KYOTO UNIVERSITY, priority 2013, dated 2022).

The subject of this assay is OSR1-positive cells sorted from OSR1-GFP & SIX2-tdTomato reporter human iPS cell line. Put plainly: SIX2-positive cell induction method 3, SIX2-tdTomato-positive cell rate by flow cytometer. It is filed as cell-based. The conditions noted are these: stage 3 medium with 5 ng/ml TGFβ1 and 0.5 μM Dorsomorphin. The procedure: The OSR1-GFP & SIX2-tdTomato reporter human iPS cell line obtained by the method in Example 1 was cultured in the manner described in stage 1 of induction method 1 to become confluent in 10-cm dishes using SNL cells as feeder cells. A CTK solution was added to dissociate the cells. After removal of the feeder cells, Accutase™ (Innovative Cell Technologies, AT-104) was added to disperse iPS cells to result in single cells. Then, the obtained cells were suspended in a DMEM/F12 medium containing 10 μM Y-27632 (Wako, 253-00513), 1 μM CHIR99021, 1 μM TTNPB, 1% GlutaMAX (100×), 2% FBS, and 0.5% PenStrep. The obtained cell suspensions (1×10^5 cells/well (for a 96-well dish)) were transferred to a dish coated with 0.1% gelatin (Gelatin from porcine skin, Type A (Sigma, G1890)), followed by adhesion culture at 37° C. in a 5% CO2 atmosphere for 2 days.
The cells obtained at stage 1 were washed with PBS. The medium was exchanged with a DMEM/F12 medium containing 1 μM TTNPB, 0.1% 2-mercaptoethanol (1000×), 1% GlutaMAX (100×), 10% KnockOut SR, 0.1 mM MEM NEAA, and 0.5% PenStrep, followed by adhesion culture at 37° C. in a 5% CO2 atmosphere for 3 to 9 days. In this case, the medium was exchanged every 3 days with a medium having the same conditions.
Accutase™ was added to cells obtained at stage 2 to dissociate the cells. […]

Turning to `c1cc(-c2cnn3cc(-c4ccc(OCCN5CCCCC5)cc4)cnc23)ccn1` [Dorsomorphin, 6-[4-(2-piperidin-1-yl-ethoxy)phenyl]-3-pyridin-4-yl-pyrazolo[1,5-a]pyrimidine], the SIX2-tdTomato-positive cell rate stood at 31.1±10.0%.

As to “TGFβ1: TGFβ signaling activator protein (Peprotech)”, the SIX2-tdTomato-positive cell rate was 31.1±10.0%.
